Measured values reported in US4698352A, “4-oxo-1,4-dihydronicotinic acid derivatives, salts thereof, and antibacterial agents containing the same” (Toyama Chemical Co., Ltd., priority 1982, dated 1987).
Values after ≈ are worked out from the molar mass of the structure shown. Like-named read-outs stand apart in the source and are kept apart here.

Assays:
Test in all cases: Antibacterial activity (MIC), agar dilution
Assay type in all cases: cell-based
Kl. pneumoniae Y-4* = settings: Klebsiella pneumoniae, 20 h, Kl. pneumoniae Y-4, penicillinase-producing; 10^6 cells per ml; read-out: MIC
Excerpt: (§1) The amount of bacteria inoculated was 10^4 cells per plate (10^6 cells per ml).
(§2) * Penicillinase-producing bacteria

St. aureus F-137* = settings: Staphylococcus aureus, 20 h, St. aureus F-137, penicillinase-producing; 10^6 cells per ml; read-out: MIC
Excerpt: as §1, §2

E. coli TK-3* = settings: Escherichia coli, 20 h
Excerpt: as §1, §2

Ps. aeruginosa GN3379* = settings: Pseudomonas aeruginosa, Ps. aeruginosa GN3379, penicillinase-producing, 10^6 cells per ml
Excerpt: as §1, §2

Ps. aeruginosa S-68 = settings: Pseudomonas aeruginosa
Excerpt: as §1

E. coli NIHJ JC-2 = settings: Escherichia coli, NIHJJC2, 20 h
Excerpt: as §1

St. aureus FDA209P = settings: Staphylococcus aureus, FDA209P, 20 h, St. aureus FDA209P; 10^6 cells per ml; 37° C., 20 hours; read-out: MIC
Excerpt: as §1

Aci. antitratus A-6 = settings: 20 h, Aci. antitratus A-6; 10^6 cells per ml; 37° C., 20 hours; read-out: MIC
Excerpt: as §1

Kl. pneumoniae Y-41 = settings: Klebsiella pneumoniae, Y41, 10^6 cells per ml, 37° C., 20 hours, read-out: MIC
Excerpt: as §1

Ent. cloacae IID977 = settings: Enterobacter cloacae, IID977, 20 h
Excerpt: as §1

E. coli TK-111 = settings: Escherichia coli, TK111, 20 h
Excerpt: as §1

Pro. mirabilis T-111 = settings: Proteus mirabilis, 37° C.
Excerpt: as §1

Kl. pneumoniae Y-50 = settings: Klebsiella pneumoniae, Y50, 20 h, 10^6 cells per ml, 37° C., read-out: MIC
Excerpt: as §1

Ps. aeruginosa IFO3445 = settings: Pseudomonas aeruginosa
Excerpt: as §1

Pro. morganii T-216 = settings: Morganella morganii, 37° C.
Excerpt: as §1

Pro. vulgaris GN3027 = settings: Proteus vulgaris, GN3027, 20 h, Pro. vulgaris GN3027; 10^6 cells per ml; 37° C., 20 hours; read-out: MIC
Excerpt: as §1

Ps. aeruginosa GN918** = settings: Pseudomonas aeruginosa, 20 h; Ps. aeruginosa GN918, cephalospolinase-producing; 10^6 cells per ml; read-out: MIC
Excerpt: as §1
(§3) ** Cephalospolinase-producing bacteria

E. coli GN5482** = settings: Escherichia coli, 20 h; E. coli GN5482, cephalospolinase-producing; 10^6 cells per ml; read-out: MIC
Excerpt: as §1, §3

Pro. vulgaris GN76** = settings: Proteus vulgaris
Excerpt: as §1, §3

[1] = E. coli TK-3, penicillinase-producing, 10^6 cells per ml, read-out: MIC
[2] = E. coli NIHJ JC-2, 10^6 cells per ml, 37° C., 20 hours, read-out: MIC
[3] = Ent. cloacae IID977, 10^6 cells per ml, 37° C., 20 hours, read-out: MIC
[4] = E. coli TK-111, 10^6 cells per ml, 37° C., 20 hours, read-out: MIC
[5] = T111, 10^6 cells per ml, 20 hours, read-out: MIC
[6] = T216, 10^6 cells per ml, 20 hours, read-out: MIC
[7] = 20 h, Pro. vulgaris GN76, cephalospolinase-producing, 10^6 cells per ml, read-out: MIC
[8] = S68, Ps. aeruginosa S-68, 10^6 cells per ml, 37° C., 20 hours, read-out: MIC
[9] = Ps. aeruginosa IFO3445, 10^6 cells per ml, 37° C., 20 hours, read-out: MIC

Structure (SMILES) | MIC (Kl. pneumoniae Y-4*) [µg/mL] | MIC (St. aureus F-137*) [µg/mL] | MIC (E. coli TK-3*; [1]) [µg/mL] | MIC (E. coli NIHJ JC-2; [2]) [µg/mL] | MIC (St. aureus FDA209P) [µg/mL] | MIC (Aci. antitratus A-6) [µg/mL] | MIC (Kl. pneumoniae Y-41) [µg/mL] | MIC (Ent. cloacae IID977; [3]) [µg/mL] | MIC (E. coli TK-111; [4]) [µg/mL] | MIC (Pro. mirabilis T-111; [5]) [µg/mL] | MIC (Kl. pneumoniae Y-50) [µg/mL] | MIC (Ps. aeruginosa IFO3445; IFO3445, 20 h) [µg/mL] | MIC (Pro. morganii T-216; [6]) [µg/mL] | MIC (Pro. vulgaris GN3027) [µg/mL] | MIC (Ps. aeruginosa GN918**) [µg/mL] | MIC (E. coli GN5482**) [µg/mL] | MIC (Pro. vulgaris GN76**; [7]) [µg/mL] | MIC (Ps. aeruginosa S-68; [8]) [µg/mL] | MIC (Ps. aeruginosa GN3379*; 20 h, read-out: MIC) [µg/mL] | MIC (Ps. aeruginosa IFO3445; [9]) [µg/mL] | also measured
O=C(O)c1cn(-c2ccc(O)cc2F)c(-c2cc3ccccc3s2)cc1=O | 1.56 (≈ 4.09 µM) | ≤ 0.05 | 0.39 (≈ 1.02 µM) | 0.2 (≈ 0.524 µM) | ≤ 0.05 | 0.1 (≈ 0.262 µM) | 1.56 (≈ 4.09 µM) | 0.39 (≈ 1.02 µM) | ≤ 0.05 | 0.78 (≈ 2.05 µM) | 0.2 (≈ 0.524 µM) | 1.56 (≈ 4.09 µM) | 0.78 (≈ 2.05 µM) | ≤ 0.05 | 3.13 (≈ 8.21 µM) | ≤ 0.05 | 0.2 (≈ 0.524 µM) |  |  |  | MIC (Ps. aeruginosa GN3379*; GN3379, 20 h): 1.56 µg/mL (≈ 4.09 µM); MIC (Ps. aeruginosa S-68; S68, 20 h): 1.56 µg/mL (≈ 4.09 µM)
CC(=O)Oc1ccc(-n2cc(C(=O)O)c(=O)cc2-c2cc3ccccc3s2)c(F)c1 | 3.13 (≈ 7.39 µM) | ≤ 0.05 | 0.39 (≈ 0.921 µM) | 0.39 (≈ 0.921 µM) | 0.1 (≈ 0.236 µM) | 0.2 (≈ 0.472 µM) | 3.13 (≈ 7.39 µM) | 0.78 (≈ 1.84 µM) | ≤ 0.05 | 1.56 (≈ 3.68 µM) | 0.39 (≈ 0.921 µM) | 3.13 (≈ 7.39 µM) | 1.56 (≈ 3.68 µM) | 0.1 (≈ 0.236 µM) | 6.25 (≈ 14.8 µM) | ≤ 0.05 | 0.39 (≈ 0.921 µM) | 1.56 (≈ 3.68 µM) |  |  | MIC (Ps. aeruginosa GN3379*; GN3379, 20 h): 3.13 µg/mL (≈ 7.39 µM)
O=C(O)c1cn(-c2ccc(O)cc2)c(-c2ccc(-c3cccs3)cc2)cc1=O | 0.78 (≈ 2 µM) | ≤ 0.05 | 0.39 (≈ 1 µM) | 0.1 (≈ 0.257 µM) | ≤ 0.05 | 0.1 (≈ 0.257 µM) | 1.56 (≈ 4.01 µM) | 0.39 (≈ 1 µM) | ≤ 0.05 | 0.39 (≈ 1 µM) | 0.2 (≈ 0.514 µM) | 1.56 (≈ 4.01 µM) | 0.39 (≈ 1 µM) | ≤ 0.05 | 6.25 (≈ 16 µM) | ≤ 0.05 | 0.2 (≈ 0.514 µM) | 3.13 (≈ 8.04 µM) | 3.13 (≈ 8.04 µM) |  | 
O=C(O)c1cn(-c2ccc(O)cc2)c(-c2cc3ccccc3s2)cc1=O | 0.78 (≈ 2.15 µM) | ≤ 0.05 | 0.39 (≈ 1.07 µM) | 0.2 (≈ 0.55 µM) | ≤ 0.05 | 0.2 (≈ 0.55 µM) | 0.78 (≈ 2.15 µM) | 0.39 (≈ 1.07 µM) | ≤ 0.05 | 0.78 (≈ 2.15 µM) | 0.2 (≈ 0.55 µM) |  | 0.39 (≈ 1.07 µM) | ≤ 0.05 | 3.13 (≈ 8.61 µM) | ≤ 0.05 | 0.2 (≈ 0.55 µM) | 0.78 (≈ 2.15 µM) | 3.13 (≈ 8.61 µM) | 3.13 (≈ 8.61 µM) | 
CN(C)c1ccc(-c2cc(=O)c(C(=O)O)cn2-c2ccc(F)cc2O)cc1 | 6.25 (≈ 17 µM) | 0.2 (≈ 0.543 µM) |  | 0.78 (≈ 2.12 µM) | 0.2 (≈ 0.543 µM) | 0.78 (≈ 2.12 µM) | 6.25 (≈ 17 µM) |  |  |  | 1.56 (≈ 4.23 µM) |  | 3.13 (≈ 8.5 µM) | 0.39 (≈ 1.06 µM) | 50 (≈ 136 µM) | ≤ 0.05 |  | 12.5 (≈ 33.9 µM) | 25 (≈ 67.9 µM) | 12.5 (≈ 33.9 µM) | MIC (E. coli TK-3*): 1.56 µg/mL (≈ 4.23 µM); MIC (Ent. cloacae IID977): 1.56 µg/mL (≈ 4.23 µM); MIC (E. coli TK-111): 1.56 µg/mL (≈ 4.23 µM); MIC (Pro. mirabilis T-111; T111, 20 h, 10^6 cells per ml): 6.25 µg/mL (≈ 17 µM); MIC (Pro. vulgaris GN76**; GN76, 20 h): 1.56 µg/mL (≈ 4.23 µM)
O=C(O)c1cn(-c2ccc(F)cc2)c(-c2sccc2-c2ccc([N+](=O)[O-])cc2)cc1=O | 6.25 (≈ 14.3 µM) | 0.1 (≈ 0.229 µM) | 3.13 (≈ 7.17 µM) |  | 0.28 (≈ 0.642 µM) | 0.78 (≈ 1.79 µM) | 6.25 (≈ 14.3 µM) | 3.13 (≈ 7.17 µM) | 0.2 (≈ 0.458 µM) |  | 1.56 (≈ 3.57 µM) |  |  | 0.39 (≈ 0.894 µM) | 12.5 (≈ 28.6 µM) | 0.2 (≈ 0.458 µM) | 3.13 (≈ 7.17 µM) | 12.5 (≈ 28.6 µM) | 25 (≈ 57.3 µM) | 12.5 (≈ 28.6 µM) | MIC (E. coli NIHJ JC-2): 1.56 µg/mL (≈ 3.57 µM); MIC (Pro. mirabilis T-111; T111, 20 h, 10^6 cells per ml): 6.25 µg/mL (≈ 14.3 µM); MIC (Pro. morganii T-216; T216, 20 h, 10^6 cells per ml): 1.56 µg/mL (≈ 3.57 µM)
